The record followed here is US20130203830A1, “Compounds for Prevention of Cell Injury” (SULFATEQ B.V., priority 2010, published 2013).

Entries after “also recorded” stand apart in the source; their conditions may differ.

Test [1] has as its system SMAC cells. The experiment in a line: Caspase 3/7 assay in hypothermic SMAC cells. It is filed as cell-based, rat. The settings on record: serotonin 5 nmol/L.
Test [2] has as its system Cystathionine-β-synthase (CBS). Description: CBS expression in SMAC cells (western blot). It is filed as cell-based, rat. The settings on record: serotonin 1.3 μM. How it is done:
To investigate the potential of serotonin in upregulating CBS expression in cells, SMAC cells were cultured in a 6 well plate one day before serotonin treatment. After reaching confluence, cells were incubated with 1.3 μM serotonin in SMAC cell complete medium. Control wells only contained the medium. At every time point (5, 10, min), cells were washed with PBS, lysed using RIPA buffer and western blotted to study the change in CBS expression level.
To investigate the role of Cystathione beta-synthase activity in the protective effect of serotonin the expression of CBS was reduced by applying a predesigned siRNA (sc-60336, Santa Cruz, USA) and compared to a silencer negative control (Ambion, AM4644, Huntingdon, UK). DDT-1 and SMAC cells at 60-80% confluence were seeded in 96 or 6 well plates in antibiotic-free normal growth medium supplemented with FCS. […] The protein concentration was measured by Bradford assay in all the samples. […] Proteins were transferred to a nitrocellulose membrane and detected by West Pico Chemiluminescent Substrate (supersignal), photographed and analyzed with genetool software (version 3.08, SynGene, England). […]

Test [3] relates to SMAC cells. The experiment in a line: H2S content of SMAC cell homogenates (methylene blue method). The test is classed as cell-based, rat. The settings on record: hypothermic SMAC cells 24 h, 3° C., pretreatment 15 min, 1.3 μM. How it is done:
Methylene blue method for H2S detection was applied to quantitatively measure the H2S production. Cells were washed with PBS, scraped and centrifuged for 60 sec at 1000 rpm. After removal of the supernatant, zinc acetate 1% in water (200 μl) was added to the cell sediments and the cells were disrupted by small glass beads and vortexed for 20 seconds. Diamine-ferric solution was prepared by mixing 100 μl of a 400 mg N,N-dimethyl-p-phenylenediamine dihydrochloride dissolved in 10 ml 6M HCl and 100 μl of 600 mg ferric chloride in 10 ml 6M HCl. Two hundred μl of this mixture was added to the cell suspension and after an incubation time of 30 min at 37° C. and centrifugation, the amount of methylene blue formed in the supernatant was measured at a wavelength of 670 nm. To measure H2S content of supernatant, the same procedure was repeated for the cell free medium of cells incubated at both 37° C. and 3° C. Blanks were made following the same procedure without cells or using fresh medium. The concentration of H2S was calculated by extrapolation using a standard curve obtained from different concentrations of Methylene blue and spectrophotometric measurement at a wavelength of 670 nm. The amount of H2S present was calculated on the basis that every mole of methylene blue formed in this reaction contains 32 g (1 mole) of captured sulfur.

For test [4], the system named is SMAC cells. Description: Survival of SMAC cells after hypothermia (MTS assay / cell counting). Particulars: SMAC cells, 24 h at 3° C., substance added 15 min before hypothermia. The test is classed as cell-based, rat. How it is done: Cell lines used included NRK (normal rat kidney cells), DDT-1 (hamster ductus deferens muscle cells) and A7R5 (rat vascular smooth muscle cells) cultured in DMEM (Gibco, 41966, UK) and SMAC (rat smooth muscle aortic cells) and THMC (transformed human mesangial cell) cultured in DMEM/F12 (Gibco, E12-719F). All media were supplied with 10% (vol/vol) fetal calf serum and 1% penicillin-streptomycin and cultured at 37° C. in 5% CO2 in 25 cm^2 or 75 cm^2 flasks. For hypothermia experiments, cells were plated in 6 or 96 wells plates and grown to confluence. Thereupon, cells were placed at 3° C. for up to 24 hours. Cell survival was measured by counting of trypan blue stained cells or MTS assay, which measures the number of viable cells. For the latter, 20 μl of MTS solution was added to each well and cells were subsequently placed in the incubator at 37° C. in 5% CO2 for 3 hr before assessing the cell survival by measuring absorption using a microplate reader at 490 nm.
MTS assay was performed to investigate cell survival after blocking serotonin transporter and hypothermic treatment.

The subject of test [5] is CBS enzyme isolated from DDT-1 cells. Description: Activity of isolated CBS enzyme (H2S production). The settings on record: both at 37° C. and 3° C. The test is classed as biochemical, hamster. How it is done: To examine the potential of serotonin to act as a cofactor or allosteric activator of CBS, the enzyme was isolated from DDT-1 cells. In brief, DDT-1 cells were lyzed by a non-denaturing buffer. CBS antibody (1 μg/ml) was diluted in coating solution and 100 μl of it was added to each well of a microplate. The plates were left at 4° C. over night. The wells were washed with PBS three times for 2 min and 10 μg/ml of the protein was added to each well and the microplate was left at 4° C. for another 24 hr and later washed three times with PBS. The substrates cysteine and homocysteine at the concentration of 10 μmol each were mixed and 100 μl was added to each well in the absence or presence of PLP (pyridoxal-5-phosphate) or serotonin (30 nmol) in PBS.

For `NCCc1c[nH]c2ccc(O)cc12` [serotonin, Serotonin], the “apoptosis (caspase 3/7) in hypothermic SMAC cells” value with SMAC cells [1] was “completely and dose dependently attenuated”. For the same compound, in test [2] (SMAC cells, 37° C., 15 min), the “induction of CBS expression” value was 4 fold. Also, in test [2], the “CBS expression in 37° C. SMAC cells” value is “upregulates CBS expression”. For the same compound, in the test with SMAC cells [3], the H2S content amounted to 1.4±0.2 μmoles per 10̂6 cells. Besides, the “increase of H2S content” value in the test with SMAC cells [3] (vs untreated) came to 8 fold. In addition, in the test with SMAC cells [4], the “protection against hypothermic cell death / reduction in number of cells” value is recorded as “concentration-dependently prevented; also recorded: Protection of hypothermic cell death”. Also, in test [5], the “activity of isolated CBS” value is reported as “increase the activity”.
